Reference: US7906522B2, “2-aminoquinazoline derivatives” (Kyowa Hakko Kirin Co., Ltd, priority 2005, dated 2011)

Biological target: T1, Activated human p38α (Homo sapiens, UniProt Q16539)
T1 construct: purchased Upstate Biotechnology Inc. 14-251
Assay: p38MAP kinase inhibition test
Format: biochemical
Conditions: at a concentration of 1 μmol/L; substrate myelin basic protein, ATP 20 μmol/L, [γ-32P]ATP; read-out: enzyme inhibitory activity
Protocol: p38MAP Kinase Inhibition Test
Activated human p38α was purchased from Upstate Biotechnology Inc. (Catalog No. 14-251). P38MAP kinase inhibitory activity was measured by the procedure described below with reference to the method by Whitmarsh A. J. and Davis R. J. [Methods in Enzymology (Method. Enzymol.), vol. 332, p. 319-336 (2001)]. As the substrate to be phosphorylated, a myelin basic protein (Catalog No. 133-13493, Wako Pure Chemical Industries, Ltd.) (20 μg/assay) was used. The reaction was carried out in a solution containing 3-[N-Morpholino]propanesulfonic acid (MOPS) (20 mmol/L, pH 7.2), β-glycerophosphoric acid (Sigma Corp.) (25 mmol/L), ethylenebis(oxyethylenenitrilo)tetraacetic acid (EGTA) (1 mmol/L), […] (Sigma-Aldrich Corp.) (1 mmol/L), dithiothreitol (DTT, Wako Pure Chemical Industries, Ltd.) (1 mmol/L), adenosine 5′-triphosphate (ATP, Sigma Corp.) (20 μmol/L), and MgCl2 (18.75 mmol/L) (total 40 μL/assay). The reaction was started by adding human p38α and [γ-^32P]ATP (1 μCi/assay), and incubation was performed at 30° C. for 15 minutes. The reaction was terminated by adding 4.5% v/v phosphoric acid (10 μL/well). Then, 45 μL of the reaction mixture was adsorbed onto phosphocellulose paper (p81 paper, Code No. 3698023, Whatman International, Maidstone, UK). The phosphocellulose paper was washed with 0.75% v/v phosphoric acid. Then, the radioactivity of the phosphorylated myelin basic protein ([^32P]) remaining on the phosphocellulose paper was measured with a scintillation counter (TRI-CARB2700TR, PerkinElmer, Boston, Mass., USA) using program No. 27 (data mode: cpm, measurement time: 1 min, Background substract: none, energy range measured: LL 0.0-UL 2000) or a scintillation counter (LS6500, BeckmanCoulter, Fullerton, Calif., USA) using program No. 17 (data mode: cpm, measurement time: 1 min, Background substract: none, energy range measured: high). The test compound was dissolved in DMSO before addition.

T1 sequence (Q16539 whole entry): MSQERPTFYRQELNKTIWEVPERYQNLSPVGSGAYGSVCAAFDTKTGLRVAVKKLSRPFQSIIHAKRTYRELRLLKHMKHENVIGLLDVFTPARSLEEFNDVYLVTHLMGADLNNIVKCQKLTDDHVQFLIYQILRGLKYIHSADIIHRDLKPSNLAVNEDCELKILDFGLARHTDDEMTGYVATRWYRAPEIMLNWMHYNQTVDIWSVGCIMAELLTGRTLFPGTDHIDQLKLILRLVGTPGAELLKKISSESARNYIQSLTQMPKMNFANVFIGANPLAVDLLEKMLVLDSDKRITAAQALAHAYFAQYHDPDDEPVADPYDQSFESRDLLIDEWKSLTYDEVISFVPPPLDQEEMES

## COCOc1c(-c2ccccc2Cl)cc2cnc(NC(C)C)nc2c1-c1cccc(C(=O)O)c1 [Compound 93, 8-(3-Carboxyphenyl)-6-(2-chlorophenyl)-2-isopropylamino-7-(methoxymethyloxy)quinazoline]
  inhibition at 1 µM: ≥ 50%

## CC(C)Nc1ncc2cc(-c3ccccc3Cl)c(O)c(-c3cccc(C(=O)O)c3)c2n1 [Compound 94, 8-(3-Carboxyphenyl)-6-(2-chlorophenyl)-7-hydroxy-2-(isopropylamino)quinazoline]
  inhibition at 1 µM: ≥ 50%

## CC(C)Nc1ncc2cc(-c3ccccc3Cl)c(O)c(-c3ccc(CC(=O)O)cc3)c2n1 [Compound 95, 8-[4-(Carboxymethyl)phenyl]-6-(2-chlorophenyl)-7-hydroxy-2-(isopropylamino)quinazoline]
  inhibition at 1 µM: ≥ 50%

## CC(C)Nc1ncc2cc(-c3ccccc3Cl)c(O)c(-c3cccc(CC(=O)O)c3)c2n1 [Compound 96, 8-[3-(Carboxymethyl)phenyl]-6-(2-chlorophenyl)-7-hydroxy-2-(isopropylamino)quinazoline]
  inhibition at 1 µM: ≥ 50%

## CC(C)Nc1ncc2cc(-c3ccccc3Cl)c(O)c(-c3ccccc3Cl)c2n1 [Compound 98, 6,8-Di(2-chlorophenyl)-7-hydroxy-2-(isopropylamino)quinazoline]
  inhibition at 1 µM: ≥ 50%

## COCOc1c(-c2ccccc2Cl)cc2cnc(NC(C)C)nc2c1-c1ccccc1F [Compound 99, 6-(2-Chlorophenyl)-8-(2-fluorophenyl)-2-isopropylamino-7-(methoxymethyloxy)quinazoline]
  inhibition at 1 µM: ≥ 50%

## CC(C)Nc1ncc2cc(-c3ccccc3Cl)c(O)c(-c3ccccc3F)c2n1 [Compound 100, 6-(2-Chlorophenyl)-8-(2-fluorophenyl)-7-hydroxy-2-(isopropylamino)quinazoline]
  inhibition at 1 µM: ≥ 50%

## CC(C)Nc1ncc2cc(-c3ccccc3Cl)c(O)c(-c3c(F)cccc3F)c2n1 [Compound 102, 6-(2-Chlorophenyl)-8-(2,6-difluorophenyl)-7-hydroxy-2-(isopropylamino)quinazoline]
  inhibition at 1 µM: ≥ 50%

## COc1cc2nc(NC(C)C)ncc2cc1C(=O)c1ccccc1 [Compound 109, 6-Benzoyl-2-isopropylamino-7-methoxyquinazoline]
  inhibition at 1 µM: ≥ 50%

## CC(C)Nc1ncc2cc(C(=O)c3ccccc3)c(O)cc2n1 [Compound 110, 6-Benzoyl-7-hydroxy-2-(isopropylamino)quinazoline]
  inhibition at 1 µM: ≥ 50%

## CCOC(=O)c1oc2c(-c3ccccc3Cl)cc3cnc(NC(C)C)nc3c2c1C [Compound 111, 6-(2-Chlorophenyl)-8-ethoxycarbonyl-2-isopropylamino-9-methylfuro[2,3-h]quinazoline]
  inhibition at 1 µM: ≥ 50%

## CC(C)Nc1ncc2cc(-c3ccccc3Cl)c3oc(C(C)(C)O)cc3c2n1 [Compound 112, 6-(2-Chlorophenyl)-8-(1-hydroxy-1-methylethyl)-2-(isopropylamino)furo[2,3-h]quinazoline]
  inhibition at 1 µM: ≥ 50%

## COc1cc2nc(NC(C)C)ncc2cc1C(=O)c1ccccc1C [Compound 113, 2-Isopropylamino-7-methoxy-6-(2-methylbenzoyl)quinazoline]
  inhibition at 1 µM: ≥ 50%

## COc1cc2nc(NC(C)C)ncc2cc1C(=O)c1cccc(C)c1 [Compound 114, 2-Isopropylamino-7-methoxy-6-(3-methylbenzoyl)quinazoline]
  inhibition at 1 µM: ≥ 50%

## COc1cc2nc(NC(C)C)ncc2cc1C(=O)c1cccc(F)c1 [Compound 116, 6-(3-Fluorobenzoyl)-2-isopropylamino-7-methoxyquinazoline]
  inhibition at 1 µM: ≥ 50%

## COc1cc2nc(NC(C)C)ncc2cc1C(=O)c1cccc(Cl)c1 [Compound 117, 6-(3-Chlorobenzoyl)-2-isopropylamino-7-methoxyquinazoline]
  inhibition at 1 µM: ≥ 50%

## Cc1cccc(C(=O)c2cc3cnc(NC(C)C)nc3cc2O)c1 [Compound 118, 7-Hydroxy-2-isopropylamino-6-(3-methylbenzoyl)quinazoline]
  inhibition at 1 µM: ≥ 50%

## Cc1ccccc1C(=O)c1cc2cnc(NC(C)C)nc2cc1O [Compound 119, 7-Hydroxy-2-isopropylamino-6-(2-methylbenzoyl)quinazoline]
  inhibition at 1 µM: ≥ 50%

## CC(C)Nc1ncc2cc(C(=O)c3cccc(Cl)c3)c(O)cc2n1 [Compound 120, 6-(3-Chlorobenzoyl)-7-hydroxy-2-(isopropylamino)quinazoline]
  inhibition at 1 µM: ≥ 50%

## COc1cccc(C(=O)c2cc3cnc(NC(C)C)nc3cc2O)c1 [Compound 121, 7-Hydroxy-2-isopropylamino-6-(3-methoxybenzoyl)quinazoline]
  inhibition at 1 µM: ≥ 50%

## COc1ccccc1C(=O)c1cc2cnc(NC(C)C)nc2cc1O [Compound 122, 7-Hydroxy-2-isopropylamino-6-(2-methoxybenzoyl)quinazoline]
  inhibition at 1 µM: ≥ 50%

## CC(C)Nc1ncc2cc(C(=O)c3cccc(O)c3)c(O)cc2n1 [Compound 123, 7-Hydroxy-6-(3-hydroxybenzoyl)-2-(isopropylamino)quinazoline]
  inhibition at 1 µM: ≥ 50%

## CC(C)Nc1ncc2cc(C(=O)c3ccccc3Cl)c(O)cc2n1 [Compound 125, 6-(2-Chlorobenzoyl)-7-hydroxy-2-(isopropylamino)quinazoline]
  inhibition at 1 µM: ≥ 50%

## CC(C)Nc1ncc2cc(C(=O)c3ccccc3F)c(O)cc2n1 [Compound 126, 6-(2-Fluorobenzoyl)-7-hydroxy-2-(isopropylamino)quinazoline]
  inhibition at 1 µM: ≥ 50%

## CC(C)Nc1ncc2cc(C(=O)c3ccc(F)c(Cl)c3)c(O)cc2n1 [Compound 127, 6-(3-Chloro-4-fluorobenzoyl)-7-hydroxy-2-(isopropylamino)quinazoline]
  inhibition at 1 µM: ≥ 50%

## CC(C)Nc1ncc2cc(C(=O)c3ccc(F)c(F)c3)c(O)cc2n1 [Compound 129, 6-(3,4-Difluorobenzoyl)-7-hydroxy-2-(isopropylamino)quinazoline]
  inhibition at 1 µM: ≥ 50%

## CC(C)Nc1ncc2cc(C(=O)c3ccc(F)cc3)c(O)cc2n1 [Compound 131, 6-(4-Fluorobenzoyl)-7-hydroxy-2-(isopropylamino)quinazoline]
  inhibition at 1 µM: ≥ 50%

## CC(C)Nc1ncc2cc(C(=O)c3cccc(F)c3)c(O)cc2n1 [Compound 132, 6-(3-Fluorobenzoyl)-7-hydroxy-2-(isopropylamino)quinazoline]
  inhibition at 1 µM: ≥ 50%

## CC(C)Nc1ncc2cc(C(=O)c3cc(F)cc(F)c3)c(O)cc2n1 [Compound 134, 6-(3,5-Difluorobenzoyl)-7-hydroxy-2-(isopropylamino)quinazoline]
  inhibition at 1 µM: ≥ 50%

## CC[C@H](C)Nc1ncc2cc(C(=O)c3cccc(C)c3)c(O)cc2n1 [Compound 135, (S)-2-(sec-Butylamino)-7-hydroxy-6-(3-methylbenzoyl)quinazoline]
  inhibition at 1 µM: ≥ 50%

## CS(=O)(=O)N1CCC(Nc2ncc3cc(C(=O)c4ccccc4)c(O)cc3n2)CC1 [Compound 136, 6-Benzoyl-7-hydroxy-2-[1-(methylsulfonyl)piperidin-4-ylamino]quinazoline]
  inhibition at 1 µM: ≥ 50%

## CCOC(=O)N1CCC(Nc2ncc3cc(C(=O)c4ccccc4)c(O)cc3n2)CC1 [Compound 137, 6-Benzoyl-2-[1-(ethoxycarbonyl)piperidin-4-ylamino]-7-hydroxyquinazoline]
  inhibition at 1 µM: ≥ 50%

## O=C(c1ccccc1)c1cc2cnc(NC3CCOCC3)nc2cc1O [Compound 138, 6-Benzoyl-7-hydroxy-2-(4-tetrahydropyranylamino)quinazoline]
  inhibition at 1 µM: ≥ 50%

## N[C@H]1CC[C@H](Nc2ncc3cc(C(=O)c4ccccc4)c(O)cc3n2)CC1 [Compound 139, 2-(trans-4-Aminocyclohexylamino)-6-benzoyl-7-hydroxyquinazoline]
  inhibition at 1 µM: ≥ 50%

## Cc1cccc(C)c1Nc1ncc2cc(C(=O)c3ccccc3)c(O)cc2n1 [Compound 140, 6-Benzoyl-2-(2,6-dimethylanilino)-7-hydroxyquinazoline]
  inhibition at 1 µM: ≥ 50%

## O=C(c1ccccc1)c1cc2cnc(Nc3c(Cl)cccc3Cl)nc2cc1O [Compound 141, 6-Benzoyl-2-(2,6-dichloroanilino)-7-hydroxyquinazoline]
  inhibition at 1 µM: ≥ 50%

## CCS(=O)(=O)N1CCC(Nc2ncc3cc(-c4ccccc4Cl)c(OC)cc3n2)CC1 [Compound 142, 6-(2-Chlorophenyl)-2-[1-(ethylsulfonyl)piperidin-4-ylamino]-7-methoxyquinazoline]
  inhibition at 1 µM: ≥ 50%

## COc1cc2nc(NC3CCN(S(=O)(=O)C(C)C)CC3)ncc2cc1-c1ccccc1Cl [Compound 143, 6-(2-Chlorophenyl)-2-[1-(isopropylsulfonyl)piperidin-4-ylamino]-7-methoxyquinazoline]
  inhibition at 1 µM: ≥ 50%

## COc1cc2nc(NCC3CCN(S(C)(=O)=O)CC3)ncc2cc1-c1ccccc1Cl [Compound 144, 6-(2-Chlorophenyl)-7-methoxy-2-[1-(methylsulfonyl)piperidin-4-ylmethylamino]quinazoline]
  inhibition at 1 µM: ≥ 50%
